One assay addresses EP2 (Homo sapiens (Human), UniProt P43116).
Another assay addresses EP4 (Homo sapiens (Human), UniProt P35408). Kind of assay: hEP4 cAMP assay (BT549 breast cancer cells, HTRF cAMP). Format: cell-based. As to conditions: antagonistic activity; mean values where measured multiple times. The procedure:
Plate is pre-incubated 45 minutes at room temperature. Subsequently, 2.5 microliters of PGE2 (final conc. 6 nM) are transferred into the assay plate. Plate is incubated 30 minutes at room temperature.
In general terms: Cyclic AMP is a second messenger, typically raised through Gs and lowered through Gi signalling.

Consider 36 molecules from US12011444B2, “N-substituted indole derivatives as PGE2 receptor modulators” (Idorsia Pharmaceuticals Ltd, priority 2015, dated 2024).

Chain of EP2 (P43116 whole entry): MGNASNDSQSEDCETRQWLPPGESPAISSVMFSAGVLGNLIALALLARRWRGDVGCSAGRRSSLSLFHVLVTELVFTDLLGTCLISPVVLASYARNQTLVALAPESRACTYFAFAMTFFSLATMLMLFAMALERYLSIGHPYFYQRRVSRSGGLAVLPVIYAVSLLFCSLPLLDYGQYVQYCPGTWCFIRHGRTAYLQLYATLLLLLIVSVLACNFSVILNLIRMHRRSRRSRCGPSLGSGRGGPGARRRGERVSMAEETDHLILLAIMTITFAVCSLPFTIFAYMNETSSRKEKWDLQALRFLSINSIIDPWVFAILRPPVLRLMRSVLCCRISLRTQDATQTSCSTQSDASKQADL
Chain of EP4 (P35408 whole entry): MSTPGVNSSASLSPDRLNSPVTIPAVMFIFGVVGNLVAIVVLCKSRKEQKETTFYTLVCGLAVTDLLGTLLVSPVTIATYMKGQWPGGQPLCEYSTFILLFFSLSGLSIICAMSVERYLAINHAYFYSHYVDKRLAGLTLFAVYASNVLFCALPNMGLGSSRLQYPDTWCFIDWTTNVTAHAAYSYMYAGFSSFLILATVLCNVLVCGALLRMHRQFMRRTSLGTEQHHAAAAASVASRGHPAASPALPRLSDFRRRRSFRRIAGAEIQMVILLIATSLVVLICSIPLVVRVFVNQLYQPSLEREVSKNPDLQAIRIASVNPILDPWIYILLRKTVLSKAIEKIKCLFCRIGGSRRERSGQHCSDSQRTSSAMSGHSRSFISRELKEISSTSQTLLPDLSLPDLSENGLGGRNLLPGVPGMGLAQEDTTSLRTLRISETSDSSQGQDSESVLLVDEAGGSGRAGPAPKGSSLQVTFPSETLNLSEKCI
Text for EP2: Human tumor cell lines expressing endogenously either EP4 or EP2 are used and cAMP accumulation in cells upon PGE2 stimulation is monitored. SF295 glioblastoma cells express high endogenous EP2 and no EP4, whereas BT549 breast cancer cells, express high endogenous EP4 levels and very low EP2 levels.
As a detection method for cAMP the HTRF (homogeneous time resolved fluorescence) Cisbio kit (HTRF cAMP dynamic 2 kit 20′000 tests Cisbio Cat. #62AM4PEC) was used, which is based on a competitive immunoassay using a Cryptate-labeled anti-cAMP antibody and d2-labeled cAMP. Native cAMP produced by cells or unlabeled cAMP (for the standard curve) compete with exogenously added d2-labeled cAMP (acceptor) for binding to monoclonal anti-cAMP-Eu3+Cryptate (donor). A FRET signal (Fluorescence Resonance Energy Transfer) is obtained only if the labeled anti-cAMP antibody binds the d2 labelled cAMP, thus the specific signal (i.e. energy transfer) is inversely proportional to the concentration of cAMP in the standard or sample.
The SF295 cells (NCI/No. 0503170) are detached from culture dishes with a cell dissociation buffer (Invitrogen, 13151-014), and collected in growing medium (GM: RPM11640 (Invitrogen 21875)/10% FCS, 1% Penicilin/streptomycin). Cells are counted washed and resuspended in assay buffer (AB; HBSS, 20 mM HEPES, 0.2% BSA; 2 mM IBMX). 4,000 cells in 5 μl of AB are seeded per well of a small volume 384 well plate (black with flat bottom, Greiner 784076).
PGE2 (Cayman 14010, stock solution: 75 μM in DMSO) is used as agonist at 75 nM final concentration, corresponding to EC80.
Two point five microliters of diluted compounds are transferred into the assay plate. Plate is pre-incubated 45 minutes at room temperature. Subsequently, 2.5 microliters of PGE2 (final conc. 75 nM) are transferred into the assay plate. Plate is incubated 30 minutes at room temperature. Five μl of each donor (anti-cAMP cryptate) and acceptor (cAMP-d2) are added and the plate is incubated another hour at room temperature in the dark and then read using a BMG LABTECH PHERAstar reader (Excitation: 337 nm, Emission: 620 and 665 nm).
The obtained Delta F (fluorescence) values (665 nm/620 nM) are converted into % cAMP values using the measurements of the cAMP calibrator provided in the kit. For each compound concentration the percentage of cAMP compared to DMSO control value as average±STDEV (each concentration is measured in duplicate) is calculated.
IC50 values and curves are generated with XLfit software (IDBS) using Dose-Response One Site model 203. When compounds were measured multiple times, mean values are given.

Broadly, the IC50 is the midpoint of a concentration-inhibition curve. Turning to `COc1cc(F)cc2c1cc(C)n2CCNc1cc(-c2cc(OC(C)C)c(C(=O)O)s2)ncn1` [compound 676], the IC50 on EP2 came to 3 nM; against EP4 it was 9 nM.
For the molecule `CCCOc1cc(-c2cc(NCCn3c(C)cc4c(OC)ccc(F)c43)ncn2)sc1C(=O)O` [compound 677], the IC50 on EP2 was found to be 2 nM; against EP4, 12 nM.
The corresponding values for `COc1cc(F)c(F)c2c1cc(C)n2CCNc1cc(-c2ccc(-c3noc(=O)[nH]3)cc2)ncn1` [compound 678, 3-(4-{6-[2-(6,7-Difluoro-4-methoxy-2-methyl-indol-1-yl)-ethylamino]-pyrimidin-4-yl}-phenyl)-4H-[1,2,4]oxadiazol-5-one] are 33 nM and 40 nM.
For the molecule `COc1cc(Cl)cc2c1cc(C)n2CCNc1cc(-c2ccc(-c3noc(=O)[nH]3)cc2)ncn1` [compound 679, 3-(4-{6-[2-(6-Chloro-4-methoxy-2-methyl-indol-1-yl)-ethylamino]-pyrimidin-4-yl}-phenyl)-4H-[1,2,4]oxadiazol-5-one], the IC50 worked out at 20 nM against EP2 and 95 nM on EP4.
Take `Cc1cc(F)c(F)c2c1cc(C)n2CCNc1cc(-c2ccc(-c3noc(=O)[nH]3)cc2)ncn1` [compound 680]: the IC50 at EP2 came out at 56 nM; at EP4, 113 nM.
As to `Cc1cc2c(Cl)cc(Cl)cc2n1CCNc1cc(-c2ccc(-c3noc(=O)[nH]3)cc2)ncn1` [compound 681, 3-(4-{6-[2-(4,6-Dichloro-2-methyl-indol-1-yl)-ethylamino]-pyrimidin-4-yl}-phenyl)-4H-[1,2,4]oxadiazol-5-one], the IC50 against EP2 worked out at 14 nM; on EP4 it was 247 nM.
In the case of `Cc1cc2c(F)c(F)cc(F)c2n1CCNc1cc(-c2ccc(-c3noc(=O)[nH]3)cc2)ncn1` [compound 682, 3-(4-{6-[2-(4,5,7-Trifluoro-2-methyl-indol-1-yl)-ethylamino]-pyrimidin-4-yl}-phenyl)-4H-[1,2,4]oxadiazol-5-one], the IC50 against EP2 turned out to be 12 nM; against EP4, 251 nM.
Regarding `COc1cc(-c2cc(NCCn3c(C)cc4c(OC)ccc(F)c43)ncn2)ccc1-c1nnn[nH]1` [compound 683, [2-(7-Fluoro-4-methoxy-2-methyl-indol-1-yl)-ethyl]-{6-[3-methoxy-4-(1H-tetrazol-5-yl)-phenyl]-pyrimidin-4-yl}-amine], the values for the IC50 against EP2 and against EP4 were 6 nM and 162 nM, respectively.
With `COc1cc(-c2cc(NCCn3c(C)cc4c(OC)ccc(Cl)c43)ncn2)ccc1-c1nnn[nH]1` [compound 684, [2-(7-Chloro-4-methoxy-2-methyl-indol-1-yl)-ethyl]-{6-[3-methoxy-4-(1H-tetrazol-5-yl)-phenyl]-pyrimidin-4-yl}-amine], the IC50 was found to be 36 nM at EP2 and 471 nM against EP4.
As for `Cc1cc(F)cc2c1cc(C)n2CCNc1cc(-c2ccc(-c3ncno3)cc2)ncn1` [compound 685, [2-(6-Fluoro-2,4-dimethyl-indol-1-yl)-ethyl]-[6-(4-[1,2,4]oxadiazol-5-yl-phenyl)-pyrimidin-4-yl]-amine], the IC50 at EP2 came out at 6 nM; on EP4, 109 nM.
The corresponding values for `Cc1nc2cc(-c3cc(NCCn4c(C)cc5c(C)ccc(F)c54)ncn3)ccc2o1` [compound 686] are 239 nM and 842 nM.
As for `COc1cc(F)cc2c1cc(C)n2CCNc1cc(-c2ccc3oc(C)nc3c2)ncn1` [compound 687], the IC50 at EP2 stood at 91 nM; at EP4, 778 nM.
Consider `COc1ccc(F)c2c1cc(C)n2CCNc1cc(-c2ccc3oc(C)nc3c2)ncn1` [compound 688], for which the IC50 amounted to 80 nM against EP2 and 680 nM on EP4.
On to `COc1ccc(F)c2c1cc(C)n2CCNc1cc(-c2cc(Cl)c(C(=O)O)c(OCC(C)C)c2)ncn1` [compound 690], for which the IC50 was determined as 5 nM against EP2 and 35 nM on EP4.
The corresponding values for `COc1cccc2c1cc(C)n2CCNc1cc(-c2cc(Cl)c(C(=O)O)c(OCC(C)C)c2)ncn1` [compound 691] are 4 nM and 177 nM.
Turning to `COc1cc(F)cc2c1cc(C)n2CCNc1cc(-c2cc(Cl)c(C(=O)O)c(OCC(C)C)c2)ncn1` [compound 692], the figures for the IC50 against EP2 and on EP4 were 7 nM and 64 nM, respectively.
The corresponding values for `Cc1cc(F)cc2c1cc(C)n2CCNc1cc(-c2cc(Cl)c(C(=O)O)c(OCC(C)C)c2)ncn1` [compound 693] are 20 nM and 234 nM.
Taken in the same sequence, the figures for `Cc1cc(F)c(F)c2c1cc(C)n2CCNc1cc(-c2cc(Cl)c(C(=O)O)c(OCC(C)C)c2)ncn1` [compound 694] were 49 nM and 120 nM.
On to `Cc1cc2ccccc2n1CCNc1cc(-c2ccc3[nH]ccc3c2)ncn1` [compound 695, [6-(1H-Indol-5-yl)-pyrimidin-4-yl]-[2-(2-methyl-indol-1-yl)-ethyl]-amine], for which the IC50 against EP2 amounted to 4 nM; at EP4, 999 nM.
Taken in the same sequence, the figures for `Cc1cc(F)c(F)c2c1cc(C)n2CCNc1cc(-c2ccc3[nH]ccc3c2)ncn1` [compound 696, [2-(6,7-Difluoro-2,4-dimethyl-indol-1-yl)-ethyl]-[6-(1H-indol-5-yl)-pyrimidin-4-yl]-amine] were 42 nM and 131 nM.
For the molecule `Cc1cc(F)cc2c1cc(C)n2CCNc1cc(-c2ccc3[nH]ccc3c2)ncn1` [compound 697, [2-(6-Fluoro-2,4-dimethyl-indol-1-yl)-ethyl]-[6-(1H-indol-5-yl)-pyrimidin-4-yl]-amine], the IC50 on EP2 was 15 nM; against EP4, 77 nM.
For `Cc1ccc(F)c2c1cc(C)n2CCNc1cc(-c2ccc3[nH]ccc3c2)ncn1` [compound 698, [2-(7-Fluoro-2,4-dimethyl-indol-1-yl)-ethyl]-[6-(1H-indol-5-yl)-pyrimidin-4-yl]-amine], the values for the IC50 against EP2 and at EP4 were 21 nM and 79 nM, respectively.
Consider `COc1cc(F)cc2c1cc(C)n2CCNc1cc(-c2ccc3[nH]ccc3c2)ncn1` [compound 699, [2-(6-Fluoro-4-methoxy-2-methyl-indol-1-yl)-ethyl]-[6-(1H-indol-5-yl)-pyrimidin-4-yl]-amine], for which the IC50 on EP2 came to 9 nM; on EP4, 63 nM.
On to `COc1ccc(F)c2c1cc(C)n2CCNc1cc(-c2ccc3[nH]ccc3c2)ncn1` [compound 700, [2-(7-Fluoro-4-methoxy-2-methyl-indol-1-yl)-ethyl]-[6-(1H-indol-5-yl)-pyrimidin-4-yl]-amine], for which the IC50 is 7 nM on EP2 and 44 nM on EP4.
Regarding `COc1cc(F)c(F)c2c1cc(C)n2CCNc1cc(-c2ccc3[nH]ccc3c2)ncn1` [compound 701, [2-(6,7-Difluoro-4-methoxy-2-methyl-indol-1-yl)-ethyl]-[6-(1H-indol-5-yl)-pyrimidin-4-yl]-amine], the results for the IC50 on EP2 and on EP4 were 15 nM and 24 nM, respectively.
Taken in the same sequence, the figures for `Cc1cc(F)c(F)c2c1cc(C)n2CCNc1cc(-c2ccc3c(ccn3C)c2)ncn1` [compound 702] were 165 nM and 225 nM.
`Cc1ccc(F)c2c1cc(C)n2CCNc1cc(-c2ccc3c(ccn3C)c2)ncn1` [compound 704, [2-(7-Fluoro-2,4-dimethyl-indol-1-yl)-ethyl]-[6-(1-methyl-1H-indol-5-yl)-pyrimidin-4-yl]-amine]: the IC50 came out at 47 nM against EP2 and 177 nM on EP4.
Regarding `COc1cc(F)cc2c1cc(C)n2CCNc1cc(-c2ccc3c(ccn3C)c2)ncn1` [compound 705, [2-(6-Fluoro-4-methoxy-2-methyl-indol-1-yl)-ethyl]-[6-(1-methyl-1H-indol-5-yl)-pyrimidin-4-yl]-amine], the IC50 stood at 21 nM against EP2 and 80 nM on EP4.
On to `COc1ccc(F)c2c1cc(C)n2CCNc1cc(-c2ccc3c(ccn3C)c2)ncn1` [compound 706, [2-(7-Fluoro-4-methoxy-2-methyl-indol-1-yl)-ethyl]-[6-(1-methyl-1H-indol-5-yl)-pyrimidin-4-yl]-amine], for which the IC50 was determined as 10 nM at EP2 and 55 nM at EP4.
The corresponding values for `COc1cc(F)c(F)c2c1cc(C)n2CCNc1cc(-c2ccc3c(ccn3C)c2)ncn1` [compound 707, [2-(6,7-Difluoro-4-methoxy-2-methyl-indol-1-yl)-ethyl]-[6-(1-methyl-1H-indol-5-yl)-pyrimidin-4-yl]-amine] are 38 nM and 57 nM.
For `COc1cc(F)cc2c1cc(C)n2CCNc1cc(-c2ccc(C(=O)CC#N)cc2)ncn1` [compound 709, 3-(4-{6-[2-(6-Fluoro-4-methoxy-2-methyl-indol-1-yl)-ethylamino]-pyrimidin-4-yl}-phenyl)-3-oxo-propionitrile], the concentration for half-maximal inhibition (IC50) at EP2 came out at 14 nM; at EP4, 535 nM.
As for `COc1ccc(F)c2c1cc(C)n2CCNc1cc(-c2ccc(C(=O)CC#N)cc2)ncn1` [compound 710, 3-(4-{6-[2-(7-Fluoro-4-methoxy-2-methyl-indol-1-yl)-ethylamino]-pyrimidin-4-yl}-phenyl)-3-oxo-propionitrile], the results for the IC50 against EP2 and on EP4 were 15 nM and 373 nM, respectively.
Regarding `COc1cc(F)c(F)c2c1cc(C)n2CCNc1cc(-c2ccc(C(=O)CC#N)cc2)ncn1` [compound 711, 3-(4-{6-[2-(6,7-Difluoro-4-methoxy-2-methyl-indol-1-yl)-ethylamino]-pyrimidin-4-yl}-phenyl)-3-oxo-propionitrile], the figures for the IC50 at EP2 and against EP4 were 16 nM and 429 nM, respectively.
For `Cc1cc(-c2ccc(-c3cc(NCCn4c(C)cc5c(C)cc(F)cc54)ncn3)cc2)on1` [compound 713], the IC50 on EP2 is 73 nM; on EP4, 267 nM.
On to `Cc1cc(-c2ccc(-c3cc(NCCn4c(C)cc5c(C)ccc(F)c54)ncn3)cc2)on1` [compound 714], for which the IC50 is 72 nM at EP2 and 958 nM at EP4.
Taken in the same sequence, the figures for `COc1cc(F)cc2c1cc(C)n2CCNc1cc(-c2ccc(-c3cc(C)no3)cc2)ncn1` [compound 715, [2-(6-Fluoro-4-methoxy-2-methyl-indol-1-yl)-ethyl]-{6-[4-(3-methyl-isoxazol-5-yl)-phenyl]-pyrimidin-4-yl}-amine] were 16 nM and 240 nM.
